According to patent publication US11033596B2, “Antioxidant, anti-inflammatory compositions and uses thereof” (Malaysian Palm Oil Board, priority 2017, dated 2021):

Key:
[1] = system: RAW macrophages; assay: Cell-based NO2- scavenging activity (Griess assay, RAW macrophages); conditions: for Actual % inhibition of ROS / % inhibition of ROS in comparison to Oil Palm phenolics (± S.E): Table 2; for Actual % inhibition of ROS: each component added at the concentration present in 800 μg/mL OPP; for % inhibition of ROS in comparison to Oil Palm phenolics (± S.E): relative to OPP 800 μg/mL = 100; for Enhancement of anti-inflammatory and anti-oxidative activity of other components / Inhibitory action / nitrite scavenging activity (in words): cell-based Griess assay
Protocol: FIG. 1 is a graphical representation of the biological enhancement of chemical combination of major compounds of Oil Palm phenolics in cell-based NO2^− scavenging activity (Griess assay, RAW macrophages, Mean±SE).
FIG. 1 and Table 2 show the synergistic effect of the composition in cell based nitrite scavenging activity.
For the study, PH435 composition was prepared according to the concentration present in 800 μg/mL of Oil Palm Phenolics.

[2] = Nitrite measurement (sodium nitroprusside, SNP assay), chemical system; conditions: for Inhibition of the nitrite ion (in words): chemical system
From the text: Nitrite Measurement (Sodium Nitroprusside—SNP Assay)
SNP in aqueous solution at physiological pH spontaneously generates nitric oxide, which interacts with oxygen to produce a nitrite ion that can be estimated by using griess reagent.

[3] = system: Red blood cells; assay: Cell-based antioxidant protection in erythrocytes (CAP-e assay), ROS scavenging; conditions: for Effect on reducing ROS / inhibitory action (in words): RBC cells; for Actual % inhibition of ROS: each component added at the concentration present in 10 mg/mL OPP; for % inhibition of ROS in comparison to Oil Palm phenolics (±S.E.): relative to OPP 10 mg/mL = 100
From the text: H2O2 Measurement (Cell-Based Antioxidant Protection in Erythrocytes CAP-e Assay)
Red blood cells can be used as a cellular model to quantify reactive oxygen species (ROS). As these cells lose their nuclei at the erythroblast stage, they cannot perform transcription and translation for bringing about genetic and protein level changes.

[4] = Chemical-based ORAC assay
[5] = system: Granulocytes/polymorphonuclear (PMN) cells; assay: H2O2 measurement, cell-based antioxidant protection in granulocytes/polymorphonuclear (PMN) cells assay
From the text: H2O2 Measurement (Cell-Based Antioxidant Protection in Granulocytesipolymorphonuclear—PMN Cells Assay)

Row | Molecule | Actual % inhibition of ROS [1] | % inhibition of ROS in comparison to Oil Palm phenolics (± S.E) [1] | Actual % inhibition of ROS [3] | % inhibition of ROS in comparison to Oil Palm phenolics (±S.E.) [3] | other results
1 | O=C(/C=C/c1ccc(O)c(O)c1)O[C@@H]1C=C(C(=O)O)C[C@@H](O)[C@@H]1O [3-Caffeoylshikimic acid, 3-caffeoylshikimic acid] | 12.3% | 18.6(±2.3) % |  |  | 
2 | O=C(O)C1=CC(=O)[C@@H](O)[C@H](O)C1 [3-dehydroshikimic acid] |  |  | 9.9% | 13.4 (±0.05) % | Inhibition of the nitrite ion (in words) [2]: low inhibition; Inhibition of the nitrite ion (in words) ([2]; listed as 3-dehydroshikirnic acid): shows inhibitory action; Effect on reducing ROS / inhibitory action (in words) [3]: shows inhibitory action; Synergy / enhancement effect of the combination on ROS inhibition ([3]; chemical combination versus mathematical sum): enhancement effect could be seen; Enhancement of anti-inflammatory and anti-oxidative activity of other components [1]: enhancement effect could be seen; Inhibitory action / nitrite scavenging activity (in words) [1]: shows inhibitory action; Enhancement effect [4]: enhancement effect could be seen
3 | O=C(/C=C/c1ccc(O)c(O)c1)O[C@@H]1[C@H](O)C=C(C(=O)O)C[C@H]1O [4-Caffeoylshikimic acid, 4-caffeoylshikimic acid] | 8.4% | 12.7(±2.5) % |  |  | 
4 | O=C(/C=C/c1ccc(O)c(O)c1)O[C@@H]1CC(C(=O)O)=C[C@@H](O)[C@H]1O [5-Caffeoylshikimic acid, 5-caffeoylshikimic acid] | 8.8% | 13.4(±3.7) % |  |  | 
5 | O=C(O)c1ccc(O)c(O)c1 [Protocatechuic acid] | 8.6% | 13 (±0.7) % |  |  | 
6 | O=C(O)C1=C[C@@H](O)[C@@H](O)[C@H](O)C1 [Shikimic acid] | 3.4% | 5.2 (±0.7) % | -Not detected- | -Not detected- | Enhancement of nitrite inhibition when added with other components ([2]; added along with p-hydroxybenzoic acid): does not show any enhancement; Inhibition of the nitrite ion (in words) [2]: shows inhibitory action; Inhibition of the nitrite ion (in words) ([2]; listed as shikimic acid): low inhibition; Effect on reducing ROS / inhibitory action (in words) [3]: shows no activity; Effect on reducing ROS / inhibitory action (in words) ([3]; listed as shikimic acid): does not show any effect; Enhancement of anti-inflammatory and anti-oxidative activity of other components [1]: able to enhance; Inhibitory action / nitrite scavenging activity (in words) [1]: shows inhibitory action; Enhancement of anti-inflammatory and anti-oxidative activity of other components [5]: able to enhance; Inhibitory action (in words) [5]: shows inhibitory action
7 | O=C(O)c1ccc(O)cc1 [p-hydoxybenzoic acid] | 11.4% | 17.3(±2.8) % | 22.5% | 30.6 (±0.2) % | 
8 | caffeoylshikimic acid |  |  | 25.9% | 35.2(±0.1) % | 
